PMC8482815, “Targeting Host Glycolysis as a Strategy for Antimalarial Development” (Frontiers in Cellular and Infection Microbiology, 2021)
Several values for one entry are separate records, joined by “and”; a condition that tells them apart may be missing. Equal entries are not always repeated.

Tested on: human erythrocytes
Test: Untargeted metabolomics and 13C-glucose tracing of enolase inhibitor treated erythrocytes
Format: cell-based
Settings: 0.5h
Procedure: Freshly collected erythrocytes were washed, resuspended to 10% hematocrit in buffer [25mM HEPES (pH 7.4), 120mM NaCl, 5.4mM KCl, 1.8mM CaCl2, and 1mM NaH2PO4], incubated for 1 hour at 37°C, then centrifuged at 2000xg for 5 minutes at 4°C, resuspended in fresh wash buffer to 30-40% hematocrit, and split into 210µL aliquots of packed erythrocytes. […] All samples were incubated at 37°C shaking at 500 RPM. Triplicate samples of supernatants and packed erythrocytes were collected at 0, 0.5, 1, and 6-hour intervals and snap-frozen in liquid N2.
RBC and media samples were extracted at 1:10 and 1:20 dilutions, respectively, in 5:3:2 MeOH : MeCN:H2O v/v/v, and supernatants analyzed on a Thermo Vanquish UHPLC coupled to a Thermo Q Exactive mass spectrometer, as extensively described ([Nemkov et al., 2015]; [Nemkov et al., 2017]). The extraction buffer was supplemented with 40uM 3-^13C lactate to allow absolute quantification of lactate isotopologues, including lactate generated via glycolysis ([1,2,3-^13C3] enriched) vs. the pentose phosphate pathway ([2,3-^13C2] enriched), as described ([Reisz et al., 2016]). Metabolite assignments, peak area integration and isotopologues distributions were determined using Maven (Princeton University) ([Nemkov et al., 2015]; [Nemkov et al., 2017]).
Data were auto-scaled and normalized to zero-hour time points. Metabolites were removed from the dataset if greater than 50% of the samples contained missing values or the relative standard deviation among replicates exceeded 25%. Additionally, data was filtered using the interquartile range to reduce near-constant values from the experiment by 5%.
A principal component analysis of preprocessed data was plotted with the 95% confidence interval minimum volume enclosing ellipsoid for each respective group (MetaboAnalyst, cluster, plotly). A two-way repeated measures analysis of variance (ANOVA) was performed with multiple comparisons corrected for using a false discovery rate p-value cutoff of 0.05. Metabolite-Pathway analysis was performed using the R package of MetaboAnalyst, as previously described ([Xia and Wishart, 2010]). Metabolite-Protein nodal analysis was performed using omicsnet.ca and as previously described ([Zhou and Xia, 2018]).

[1] = treated erythrocytes, one value per replicate sample, polarity +
[2] = treated erythrocytes, one value per replicate sample, polarity -
[3] = treated erythrocytes, replicate samples

CC(C)(C)C(=O)OCOP(=O)(OCOC(=O)C(C)(C)C)C1CCCN(O)C1=O (stereo not shown) [POMHEX]
AMP level (metabolomics signal) (replicate samples): 2.04E+06 and 4.36E+06 and 1.74E+06 | ATP level (metabolomics signal) (replicate samples): 4.24E+03 and 2.55E+03 and 4.82E+03 | Adenine level (metabolomics signal) (replicate samples): 1.54E+05 and 1.61E+05 and 1.63E+05 | Cytosine level (metabolomics signal) (replicate samples): 6.37E+05 and 5.53E+05 and 6.73E+05 | L-alanine level (metabolomics signal) (replicate samples): 1.10E+07 and 9.02E+06 and 1.16E+07 | L-arginine level (metabolomics signal) (replicate samples): 8.79E+06 and 1.37E+07 and 1.09E+07 | L-asparagine level (metabolomics signal) (replicate samples): 5.66E+06 and 6.04E+06 and 5.52E+06 | L-aspartate level (metabolomics signal) (replicate samples): 5.07E+07 and 4.67E+07 and 4.55E+07 | L-cysteine level (metabolomics signal) (replicate samples): 3.90E+05 and 9.84E+05 and 3.84E+05 | L-glutamate level (metabolomics signal) (replicate samples): 3.66E+07 and 3.55E+07 (2×) | L-glutamine level (metabolomics signal) (replicate samples): 6.00E+07 and 6.77E+07 and 7.03E+07 | L-histidine level (metabolomics signal) (replicate samples): 1.31E+06 and 1.35E+06 and 1.30E+06 | L-isoleucine level (metabolomics signal) (replicate samples): 1.70E+07 and 1.55E+07 and 1.61E+07 | L-leucine level (metabolomics signal) (replicate samples): 2.16E+08 and 2.81E+08 and 2.05E+08 | L-lysine level (metabolomics signal) (replicate samples): 2.55E+06 and 2.50E+06 and 1.99E+06 | L-methionine level (metabolomics signal) (replicate samples): 1.95E+07 and 2.57E+07 and 1.85E+07 | L-phenylalanine level (metabolomics signal) (replicate samples): 1.37E+07 and 1.80E+07 and 1.25E+07 | L-proline level (metabolomics signal) (replicate samples): 4.87E+07 and 5.22E+07 and 3.89E+07 | L-serine level (metabolomics signal) (replicate samples): 4.56E+06 and 4.84E+06 and 4.45E+06 | L-threonine level (metabolomics signal) (replicate samples): 6.27E+06 and 7.92E+06 and 7.08E+06 | L-tryptophan level (metabolomics signal) (replicate samples): 5.02E+06 and 4.78E+06 and 4.62E+06 | L-tyrosine level (metabolomics signal) (replicate samples): 2.37E+07 (2×) and 3.01E+07 | L-valine level (metabolomics signal) (replicate samples): 1.71E+08 and 1.67E+08 and 1.60E+08 | dCMP level (metabolomics signal) (replicate samples): 2.34E+04 and 2.37E+04 and 1.78E+04 | dTMP level (metabolomics signal) (replicate samples): 9.79E+05 and 1.15E+06 and 1.17E+06 | glycine level (metabolomics signal) (replicate samples): 2.21E+06 and 2.32E+06 and 2.35E+06 | N-Acyl-D-aspartate (C06380) metabolite signal [1]: 2.31E+05 and 2.56E+05 and 2.58E+05 | Poly-gamma-D-glutamate (C05723) metabolite signal [1]: 3.95E+07 and 4.61E+07 and 4.86E+07 | D-Ribitol 5-phosphate (C01068) metabolite signal [2]: 2.02E+04 and 2.67E+04 and 2.32E+04 | D-glucono-1,5-lactone (C00198) metabolite signal [2]: 5.42E+05 and 4.39E+05 and 4.31E+05 | L-Noradrenaline (C00547) metabolite signal [2]: 7.51E+04 and 1.32E+05 and 6.59E+04 | Oxalosuccinate (C05379) metabolite signal [2]: 1.39E+05 and 1.40E+05 and 1.27E+05 | Pyridoxamine (C00534) metabolite signal [2]: 3.25E+04 and 2.97E+04 and 2.95E+04 | Thioredoxin disulfide (C00343) metabolite signal [2]: 5.85E+04 and 1.53E+04 and 4.46E+04 | 1-4-beta-D-Xylan (metabolite signal) [3]: 2.40E+05 and 2.75E+05 and 1.64E+05 | 2-Hydroxyglutarate/Citramalate (C02630) metabolite signal [3]: 1.06E+05 and 6.70E+04 and 9.81E+04 | 5-6-Dihydrothymine (C00906) metabolite signal [3]: 3.14E+05 and 2.95E+05 and 2.82E+05 | 5-10-Methenyltetrahydrofolate (metabolite signal) [3]: 3.07E+05 and 3.19E+05 and 3.47E+05 | 5-Hydroxyisourate (C11821) metabolite signal [3]: 6.72E+06 and 4.60E+06 and 5.11E+06 | 5-L-Glutamyl-taurine (metabolite signal) [3]: 1.65E+05 and 1.74E+05 and 8.68E+04 | 5-Oxoproline (metabolite signal) [3]: 1.01E+06 and 8.27E+05 and 8.80E+05 | (S)(+)-Allantoin (C02350) metabolite signal [3]: 2.15E+04 and 0.00E+00 and 2.93E+04 | Allantoate (C00499) metabolite signal [3]: 2.52E+05 and 3.85E+05 and 2.39E+05 | Ascorbate (metabolite signal) [3]: 9.38E+04 and 1.10E+05 and 1.13E+05 | CMP-N-acetylneuraminate (metabolite signal) [3]: 2.14E+04 and 1.46E+04 and 2.19E+04 | Carnosine (metabolite signal) [3]: 2.66E+05 and 1.54E+05 and 2.52E+05 | Citrate (C00158) metabolite signal [3]: 4.21E+04 and 3.38E+04 and 3.43E+04 | Creatine (metabolite signal) [3]: 3.82E+08 and 3.13E+08 and 3.15E+08 | Creatinine (metabolite signal) [3]: 3.99E+06 and 3.09E+06 and 3.73E+06 | Cys-Gly (metabolite signal) [3]: 2.17E+06 and 2.13E+06 and 1.97E+06 | D-Glucosamine (metabolite signal) [3]: 2.57E+05 and 3.05E+05 and 2.16E+05 | D-Glucose (C00031) metabolite signal [3]: 6.04E+06 and 6.91E+06 and 5.92E+06 | D-Ribose (C00121) metabolite signal [3]: 1.90E+05 and 1.42E+05 and 1.71E+05 | Dehydroascorbate (metabolite signal) [3]: 1.55E+04 and 2.20E+04 and 1.72E+04 | Dihydrofolate (metabolite signal) [3]: 1.72E+06 and 1.97E+06 and 2.05E+06 | Dimethylglycine (metabolite signal) [3]: 1.06E+06 and 1.08E+06 and 9.75E+05 | Diphosphate (C00013) metabolite signal [3]: 3.53E+03 and 8.59E+03 and 2.40E+03 | Fumarate (C00122) metabolite signal [3]: 1.24E+05 and 9.52E+04 and 1.10E+05 | Glutathione (C00051) metabolite signal [3]: 1.46E+08 and 1.38E+08 and 1.22E+08 | Glutathione disulfide (metabolite signal) [3]: 2.34E+05 and 1.46E+05 and 2.55E+05 | Hypoxanthine (C00262) metabolite signal [3]: 4.07E+04 and 4.68E+04 and 4.37E+04 | IMP (C00130) metabolite signal [3]: 0.00E+00 and 1.71E+05 and 8.01E+04 | Inosine (C00294) metabolite signal [3]: 1.09E+05 and 6.95E+04 and 7.35E+04 | L-Citrulline (metabolite signal) [3]: 4.16E+06 and 4.12E+06 and 4.14E+06 | L-Homoserine (metabolite signal) [3]: 1.91E+05 and 2.39E+05 and 1.86E+05 | Lactate (C01432) metabolite signal [3]: 8.53E+06 and 7.59E+06 and 8.32E+06 | Malate (C00149) metabolite signal [3]: 2.09E+05 and 1.30E+05 and 1.62E+05 | Mannitol (C00392) metabolite signal [3]: 1.34E+05 and 1.15E+05 and 1.42E+05 | N-Acetylneuraminate (metabolite signal) [3]: 3.02E+04 and 1.89E+04 and 1.91E+04 | N-Glycoloyl-neuraminate (metabolite signal) [3]: 1.66E+05 and 1.75E+05 and 1.62E+05 | NAD+ (C00003) metabolite signal [3]: 5.24E+05 and 2.47E+05 and 4.46E+05 | Nicotinamide (C00153) metabolite signal [3]: 3.74E+07 and 4.23E+07 and 3.90E+07 | Ornithine (metabolite signal) [3]: 2.17E+06 and 2.00E+06 and 1.65E+06 | Oxaloacetate (C00036) metabolite signal [3]: 3.93E+04 and 5.60E+04 and 5.05E+04 | Phosphoserine (metabolite signal) [3]: 5.17E+04 and 3.63E+04 and 3.54E+04 | Putrescine (metabolite signal) [3]: 7.82E+04 and 7.87E+04 and 8.82E+04 | Pyridoxal (C00250) metabolite signal [3]: 7.34E+04 and 7.61E+04 and 7.64E+04 | Pyruvate (C00022) metabolite signal [3]: 5.86E+05 and 6.64E+05 and 6.39E+05 | S-Glutathionyl-L-cysteine (metabolite signal) [3]: 1.61E+05 and 1.05E+05 and 1.77E+05 | Sedoheptulose 1-phosphate (C06222) metabolite signal [3]: 1.57E+04 and 1.33E+04 and 1.23E+04 | Spermidine (metabolite signal) [3]: 1.10E+07 and 8.21E+06 and 9.51E+06 | Spermine (metabolite signal) [3]: 1.10E+07 and 9.13E+06 and 8.60E+06 | Succinate (C00042) metabolite signal [3]: 7.14E+04 and 9.44E+04 and 6.66E+04 | Thymidine (C00214) metabolite signal [3]: 1.01E+04 and 1.94E+04 and 1.37E+04 | UDP (C00015) metabolite signal [3]: 1.69E+05 and 2.66E+05 and 2.03E+05 | UDP-N-acetyl-D-glucosamine (metabolite signal) [3]: 1.85E+04 (2×) and 1.14E+04 | UDP-glucose (C00029) metabolite signal [3]: 3.86E+04 and 2.14E+04 and 2.96E+04 | Urate (C00366) metabolite signal [3]: 3.40E+04 and 3.79E+04 and 3.24E+04 | Xanthine (C00385) metabolite signal [3]: 3.40E+05 and 3.32E+05 and 3.09E+05 | alpha-D-Glucosamine 1-phosphate (metabolite signal) [3]: 2.32E+06 and 1.61E+06 and 1.74E+06 | alpha-D-Ribose 1-phosphate (C00620) metabolite signal [3]: 1.49E+05 and 1.17E+05 and 8.56E+04 | gamma-Glutamyl-gamma-aminobutyrate (metabolite signal) [3]: 9.84E+04 and 1.13E+05 and 1.05E+05 | gamma-L-Glutamyl-D-alanine (metabolite signal) [3]: 3.61E+04 and 2.95E+04 and 2.86E+04 | gamma-L-Glutamyl-L-cysteine (metabolite signal) [3]: 2.26E+04 and 4.82E+04 and 4.78E+04
